According to patent US20240270821A1, “GIP/GLP1/GCG TRI-RECEPTOR AGONISTS AND USES THEREOF” (priority 2023, published 2024):
Where two headings read alike, the source gives them in different places. Starred links: 1 amine or outer side, 2 acyl side, 3 side chain; linkers in the order of their positions; H or OH if unused. Non-standard residues stand in square brackets, D forms with d. Residues, ends and D or L forms follow the SMILES beside them. Groups on a side chain read outwards from the residue. No end group written: not given here. *: point of attachment. C20 diacid = O=C(O)CCCCCCCCCCCCCCCCCCC(=O)*; C18 diacid = O=C(O)CCCCCCCCCCCCCCCCC(=O)*; αMePhe(2-F) = C[C@](N)(Cc1ccccc1F)C(=O)O; γGlu = O=C(O)[C@H](CCC(=O)[*:2])N[*:1]; αMe4Pal = C[C@](N)(Cc1ccncc1)C(=O)O; αMeY = C[C@](N)(Cc1ccc(O)cc1)C(=O)O; 4Pal = N[C@@H](Cc1ccncc1)C(=O)O; αMeL = CC(C)C[C@](C)(N)C(=O)O; αMeS = C[C@](N)(CO)C(=O)O; Orn = NCCC[C@H](N)C(=O)O; AEEA = NCCOCCOCC(=O)O; Aib = CC(C)(N)C(=O)O

Experiments:
Type in all cases: cell-based
hGIPR [1] = molecular target: T1, hGIPR (Homo sapiens, UniProt P48546); test: Functional cAMP activity in the presence of 1% HSA; settings: read-out: cAMP Rel EC50, hGIPR
T1 sequence (P48546 22-466): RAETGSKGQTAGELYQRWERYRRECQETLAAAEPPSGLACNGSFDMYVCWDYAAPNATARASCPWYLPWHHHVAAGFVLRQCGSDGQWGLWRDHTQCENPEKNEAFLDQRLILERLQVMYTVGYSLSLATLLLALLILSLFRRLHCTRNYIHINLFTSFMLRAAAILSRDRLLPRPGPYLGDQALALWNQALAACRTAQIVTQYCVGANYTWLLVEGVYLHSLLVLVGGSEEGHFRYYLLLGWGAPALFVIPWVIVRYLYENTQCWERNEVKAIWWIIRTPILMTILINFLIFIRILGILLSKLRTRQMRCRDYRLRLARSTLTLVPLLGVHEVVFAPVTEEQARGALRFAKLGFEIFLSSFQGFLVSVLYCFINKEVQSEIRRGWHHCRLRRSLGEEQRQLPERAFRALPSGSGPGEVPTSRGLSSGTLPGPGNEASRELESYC

hGLP-1R [2] = molecular target: T2, hGLP-1R (Homo sapiens, UniProt P43220); test: Functional cAMP activity in the presence of 1% HSA; settings: read-out: cAMP Rel EC50, hGLP-1R
human GcgR = human GcgR (Homo sapiens, UniProt P47871); test: Functional cAMP activity in the presence of 1% HSA; settings: read-out: cAMP Rel EC50, hGcgR
hGIPR [3] = molecular target: T1, hGIPR; test: Functional cAMP activation in the presence of 0.1% casein (no HSA); settings: read-out: Relative cAMP EC50, hGIPR;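 on Relative cAMP EC50, hGIPR: intracellular cAMP rise after 30 min at 37 °C read by HTRF against a standard curve, scaled between buffer alone (0%) and top control ligand concentration (100%), four-parameter fit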;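 on Relative cAMP EC50, hGLP-1R: intracellular cAMP rise after 30 min at 37 °C read by HTRF, normalized between buffer only (0%) and maximal control ligand (100%), four-parameter variable-slope fit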;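 on Relative cAMP EC50, hGcgR: intracellular cAMP rise after 30 min at 37 °C, read by HTRF against a cAMP standard curve, scaled from buffer only (0%) to maximal control ligand response (100%)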
hGLP-1R [4] = molecular target: T2, hGLP-1R; test: as above; settings: read-out: Relative cAMP EC50, hGLP-1R
hGcgR = hGcgR (Homo sapiens, UniProt P47871); test: as above; settings: read-out: Relative cAMP EC50, hGcgR;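 further: intracellular cAMP rise after 30 min at 37 °C, read by HTRF against a cAMP standard curve, scaled from buffer only (0%) to maximal control ligand response (100%)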
[5] = in the presence of 0.1% casein (no HSA), geometric mean
[6] = 0.1% casein, no HSA, geometric mean

T2 sequence (P43220 24-463): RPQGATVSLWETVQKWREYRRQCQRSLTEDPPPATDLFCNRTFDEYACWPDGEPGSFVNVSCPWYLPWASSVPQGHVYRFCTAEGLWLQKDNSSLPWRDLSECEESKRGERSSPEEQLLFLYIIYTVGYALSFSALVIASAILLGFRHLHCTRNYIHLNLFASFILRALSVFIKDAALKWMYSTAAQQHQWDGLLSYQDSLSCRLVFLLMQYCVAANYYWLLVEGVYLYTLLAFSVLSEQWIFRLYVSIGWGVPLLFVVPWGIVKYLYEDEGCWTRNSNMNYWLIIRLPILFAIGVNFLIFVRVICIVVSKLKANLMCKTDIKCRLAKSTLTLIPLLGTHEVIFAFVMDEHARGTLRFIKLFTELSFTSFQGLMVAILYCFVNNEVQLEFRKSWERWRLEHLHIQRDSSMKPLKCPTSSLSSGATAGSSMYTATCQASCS
Sequence of hGcgR (P47871 26-477): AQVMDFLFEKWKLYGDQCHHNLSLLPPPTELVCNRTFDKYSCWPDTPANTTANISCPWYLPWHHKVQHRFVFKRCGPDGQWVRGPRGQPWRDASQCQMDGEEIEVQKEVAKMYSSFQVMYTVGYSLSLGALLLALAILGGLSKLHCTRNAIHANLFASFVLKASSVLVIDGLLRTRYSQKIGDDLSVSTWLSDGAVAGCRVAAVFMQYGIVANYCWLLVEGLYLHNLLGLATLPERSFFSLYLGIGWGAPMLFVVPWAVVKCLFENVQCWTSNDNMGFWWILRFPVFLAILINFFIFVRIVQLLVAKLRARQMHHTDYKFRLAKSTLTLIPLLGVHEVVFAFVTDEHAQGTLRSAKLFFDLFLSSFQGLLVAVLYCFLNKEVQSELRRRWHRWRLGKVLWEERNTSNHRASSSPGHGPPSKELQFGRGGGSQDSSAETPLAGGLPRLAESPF
Sequence of human GcgR (P47871 26-477): as above

Row | Compound | EC50 (hGIPR [1]) | EC50 (hGLP-1R [2]) | EC50 (human GcgR) | EC50 (hGIPR [3]) | EC50 (hGLP-1R [4]) | EC50 (hGcgR) | EC50 (hGIPR [3]; [5]) | EC50 (hGLP-1R [4]; [5]) | EC50 (hGcgR; [5]) | EC50 (hGIPR [3]; [6]) | EC50 (hGLP-1R [4]; [6]) | EC50 (hGcgR; [6])
1 | H-Y[Aib]QGT[αMePhe(2-F)]TSD[4Pal][αMeS]I[αMeL]LD[Orn]K([AEEA-γGlu-C18 diacid])AA[Aib]EFI[dE][αMeY]LLEGGPSSGAPPPSGS-NH2 [Example 672] | 1.53 nM | 49.4 nM | 162 nM | 0.014 nM | 0.389 nM | 1.19 nM | – | – | – | – | – | –
2 | H-Y[Aib]QGT[αMePhe(2-F)]TSD[4Pal][αMeS]I[αMeL]LD[Orn]K([AEEA-γGlu-γGlu-C18 diacid])AQ[αMe4Pal]EFI[dE][αMeY]LIEGGPSSGEPPPSGE-NH2 [Example 1177] | 0.544 nM | 43.6 nM | 156 nM | – | – | – | 0.0114 nM | 0.681 nM | 4.23 nM | – | – | –
3 | Y[Aib]QGT[αMePhe(2-F)]TSDYSKILDKIAQK([AEEA-γGlu-C20 diacid])AFIQYLIEGGPSSGEPPPSEG-NH2 [Example 354] | 23.8 nM | 175 nM | 1440 nM | – | – | – | 0.134 nM | 1.21 nM | 7.91 nM | – | – | –
4 | H-Y[Aib]QGT[αMePhe(2-F)]TSD[4Pal]SILLDKK([γGlu-γGlu-C18 diacid])AQ[Aib]AFIEYLEEGGPSSGAPPPSGSGE-NH2 [Example 618] | 4.63 nM | 88.9 nM | 691 nM | 0.0418 nM | 1.53 nM | 5.57 nM | – | – | – | – | – | –
5 | H-Y[Aib]QGT[αMePhe(2-F)]TSD[4Pal]SI[αMeL]LD[Orn]K([γGlu-γGlu-C18 diacid])AQ[αMe4Pal][Orn]FI[dE][αMeY]LIEGGPSSGEPPPEAE-NH2 [Example 684] | 0.436 nM | 14.2 nM | 143 nM | 0.00843 nM | 0.28 nM | 2.16 nM | – | – | – | – | – | –
6 | H-Y[Aib]QGT[αMePhe(2-F)]TSD[4Pal]SI[αMeL]LD[Orn]K([γGlu-γGlu-C18 diacid])AQ[αMe4Pal]EFI[dE][αMeY]LQEGGPSSGEPPPSGS-NH2 [Example 649] | 0.76 nM | 62.9 nM | 669 nM | 0.0221 nM | 1.35 nM | 21.2 nM | – | – | – | – | – | –
7 | CC[C@H](C)[C@H](NC(=O)[C@H](Cc1ccccc1)NC(=O)[C@H](C)NC(=O)C(C)(C)NC(=O)[C@H](CCC(N)=O)NC(=O)[C@H](C)NC(=O)[C@H](CCCCNC(=O)COCCOCCNC(=O)CC[C@H](NC(=O)CCCCCCCCCCCCCCCCC(=O)O)C(=O)O)NC(=O)[C@H](CCCCN)NC(=O)[C@H](CC(=O)O)NC(=O)[C@H](CC(C)C)NC(=O)[C@H](CC(C)C)NC(=O)[C@@H](NC(=O)[C@H](CO)NC(=O)[C@H](Cc1ccc(O)cc1)NC(=O)[C@H](CC(=O)O)NC(=O)[C@H](CO)NC(=O)[C@@H](NC(=O)[C@](C)(Cc1ccccc1F)NC(=O)[C@@H](NC(=O)CNC(=O)[C@H](CCC(N)=O)NC(=O)C(C)(C)NC(=O)[C@@H](N)Cc1c[nH]cn1)[C@@H](C)O)[C@@H](C)O)[C@@H](C)CC)C(=O)N[C@@H](CCC(=O)O)C(=O)N[C@@H](Cc1ccc(O)cc1)C(=O)N[C@@H](CC(C)C)C(=O)N[C@@H](CCC(=O)O)C(=O)N[C@@H](CCC(=O)O)C(=O)NCC(=O)NCC(=O)N1CCC[C@H]1C(=O)N[C@@H](CO)C(=O)N[C@@H](CO)C(=O)NCC(=O)N[C@@H](C)C(=O)N1CCC[C@H]1C(=O)N1CCC[C@H]1C(=O)N1CCC[C@H]1C(=O)N[C@@H](CO)C(N)=O [Example 425] (H-H[Aib]QGT[αMePhe(2-F)]TSDYSILLDKK([AEEA-γGlu-C18 diacid])AQ[Aib]AFIEYLEEGGPSSGAPPPS-NH2; N-terminus assumed) | 46.9 nM | 20.3 nM | 1150 nM | 0.0997 nM | 0.15 nM | 5.49 nM | – | – | – | – | – | –
8 | CC[C@H](C)[C@H](NC(=O)[C@H](Cc1ccccc1)NC(=O)[C@H](C)NC(=O)C(C)(C)NC(=O)[C@H](CCC(N)=O)NC(=O)[C@H](C)NC(=O)[C@H](CCCCNC(=O)CC[C@H](NC(=O)CC[C@H](NC(=O)CCCCCCCCCCCCCCCCC(=O)O)C(=O)O)C(=O)O)NC(=O)[C@H](CCCCN)NC(=O)[C@H](CC(=O)O)NC(=O)[C@H](CC(C)C)NC(=O)[C@H](CC(C)C)NC(=O)[C@@H](NC(=O)[C@H](CO)NC(=O)[C@H](Cc1ccc(O)cc1)NC(=O)[C@H](CC(=O)O)NC(=O)[C@H](CO)NC(=O)[C@@H](NC(=O)[C@](C)(Cc1ccccc1F)NC(=O)[C@@H](NC(=O)CNC(=O)[C@H](CCC(N)=O)NC(=O)C(C)(C)NC(=O)[C@@H](N)Cc1ccc(O)cc1)[C@@H](C)O)[C@@H](C)O)[C@@H](C)CC)C(=O)N[C@@H](CCC(=O)O)C(=O)N[C@@H](Cc1ccc(O)cc1)C(=O)N[C@@H](CC(C)C)C(=O)N[C@@H](CCC(=O)O)C(=O)N[C@@H](CCC(=O)O)C(=O)NCC(=O)NCC(=O)N1CCC[C@H]1C(=O)N[C@@H](CO)C(=O)N[C@@H](CO)C(=O)NCC(=O)N[C@@H](C)C(=O)N1CCC[C@H]1C(=O)N1CCC[C@H]1C(=O)N1CCC[C@H]1C(=O)N[C@@H](CO)C(=O)N[C@@H](CCC(=O)O)C(N)=O [Example 433] (H-Y[Aib]QGT[αMePhe(2-F)]TSDYSILLDKK([γGlu-γGlu-C18 diacid])AQ[Aib]AFIEYLEEGGPSSGAPPPSE-NH2; N-terminus assumed) | 15.3 nM | 43.4 nM | 532 nM | 0.0206 nM | 0.273 nM | 5.78 nM | – | – | – | – | – | –
9 | H-Y[Aib]QGTFTSDYSI[αMeL]LDKQAAK([AEEA-AEEA-γGlu-C20 diacid])QFVEWLLA[Aib]GPSSGAPPPSEG-NH2 [Example 327] | 63.3 nM | 473 nM | 1400 nM | – | – | – | 0.312 nM | 1.61 nM | 3.04 nM | – | – | –
10 | H-Y[Aib]QGT[αMePhe(2-F)]TSD[4Pal][αMeS]I[αMeL]LD[Orn]K([AEEA-γGlu-C18 diacid])AQ[αMe4Pal]EFI[dE][αMeY]LIEGGPPS[Aib]EPPPSGGGE-NH2 [Example 1201] | 1.02 nM | 93.9 nM | 234 nM | – | – | – | – | – | – | 0.00959 nM | 0.888 nM | 1.76 nM
11 | H-Y[Aib]QGTFTSD[4Pal]SQ[αMeL]LDKK([γGlu-γGlu-C18 diacid])AQ[αMe4Pal]AFIE[αMe4Pal]LIE[Aib]GPSSGEPPPSGSEE-NH2 [Example 1125] | 3.95 nM | 243 nM | 264 nM | – | – | – | 0.173 nM | 8.26 nM | 5.83 nM | – | – | –
12 | H-Y[Aib]QGTFTSD[4Pal]S[Orn][αMeL]LD[Orn]K([dE-γGlu-C18 diacid])AQ[αMe4Pal]AFIEYLIAGGPSSGAPPPSGSEE-NH2 [Example 1063] | 26.6 nM | 626 nM | 2290 nM | – | – | – | 0.318 nM | 6.96 nM | 10.6 nM | – | – | –
13 | Y[Aib]QGT[αMePhe(2-F)]TSDYSKLLDKIAQK([AEEA-γGlu-C20 diacid])AFIQYLIEGGPSSGEPPPSEG-NH2 [Example 338] | 10.9 nM | 172 nM | 659 nM | – | – | – | 0.0733 nM | 1.22 nM | 4.02 nM | – | – | –
14 | H-Y[Aib]QGTFTSD[4Pal]SQ[αMeL]LDKK([γGlu-γGlu-C18 diacid])AQ[αMe4Pal]AFIEYLIE[Aib]GPSSGAPPPSGSE-NH2 [Example 890] | 14.2 nM | 290 nM | 559 nM | – | – | – | 0.113 nM | 3.19 nM | 4.73 nM | – | – | –
15 | H-Y[Aib]QGTFTSD[4Pal]SQ[αMeL]LDKK([AEEA-γGlu-C18 diacid])AQ[αMe4Pal]AFIEYLIE[Aib]GPSSGAPPPSGSGE-NH2 [Example 888] | 30.8 nM | 238 nM | 567 nM | – | – | – | 0.168 nM | 5.02 nM | 30.1 nM | – | – | –
